Results as given in US3931199A, “Benzopyrano and benzothiopyrano [2,3-6] pyridines” (Yoshitomi Pharmaceutical Industries, Ltd., priority 1973, dated 1976).
Where two headings read alike, the source gives them in different places.

Test system: Passive Cutaneous Anaphylaxis
Assay: Passive Cutaneous Anaphylaxis Test
Format: in vivo, Donryu-strain male rats
Details: Rattus norvegicus, dose required for 50% inhibition, rats sensitized with reagin serum, egg albumin challenge after 48 hours
Method: A test solution containing a test compound was administered orally 1 hour before, or intraperitoneally 30 minutes before challenge. The animals were killed 30 minutes after challenge, the skin reflected, and the responses measured and scored 0 for diameter of wheal less than 5 mm, 1 for 5-10 mm,[…] 3 for 15-20 mm and 4 for more than 20 mm. The percentage inhibition was calculated using the formula: [formula]

[1] = ip, 0.5 h, i.p., 30 minutes before challenge, read-out: ED50 i.p.
[2] = po, 1 hour before challenge, read-out: ED50 p.o.

CC(=O)c1ccc2oc3ncccc3c(=O)c2c1 [A, 7-acetyl-5-oxo-5H-[1]benzopyrano[2,3-b]pyridine]
ED50 [1]: 1 mg/kg | ED50 [2]: 10 mg/kg

CC(C)C(=O)c1ccc2oc3ncccc3c(=O)c2c1 [B, 7isobutyryl-5-oxo-5H-[1]benzopyrano[2,3-b]pyridine]
ED50 [1]: 1 mg/kg | ED50 [2]: 25 to 50 mg/kg

O=C(O)c1ccc2oc3ncccc3c(=O)c2c1 [C, 5-oxo-5H-[1]benzopyrano[2,3-b]pyridine-7-carboxylic acid]
ED50 [1]: 2 mg/kg | ED50 [2]: 25 mg/kg

O=C([O-])c1ccc2oc3nc(-c4ccccc4)ccc3c(=O)c2c1.[Na+] [D, sodium 2-phenyl-5-oxo-5H-[1]benzopyrano[2,3-b]pyridine-7-carboxylate]
ED50 [1]: 1 mg/kg | ED50 [2]: 40 mg/kg
